pIC50: −log10 of the molar value. Marks after values point to notes of the source that are not given here. Blank lines part the entries; values can stand above or below the compound they belong to.
Key:
[1] = molecular target: EP2 subtype of the human PGE2 receptor (hEP2 receptor) (Homo sapiens, UniProt P43116); experiment: cAMP antagonism test, human prostaglandin E2 (subtype EP2) receptor signal; assay type: cell-based
In short: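 Cells (625000 cells/ml, mixed with cAMP-d2) were preincubated 20 min at RT with compound ([…]). They were then stimulated 60 min at RT with a 3× PGE2 solution (1.5 nM) in PBS-IBMX and lysed for 20 min. cAMP was read by HTRF as the 665/620 nm ratio ×10000, with antagonism seen as a rise in FRET signal.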

[2] = system: fertility of the female rat; experiment: Single administration of EP2 receptor antagonists and COX inhibitors alone or in combination, fertility of the rat (implantation sites); assay type: in vivo, female Han Wistar rats
Procedure: 6. Effect of a Single Administration of EP2 Receptor Antagonists and COX Inhibitors Alone or in Combination on the Fertility of the Rat
In the experiments below, female Han Wistar rats having a weight of 200-270 g were used. The animals were kept in Makrolon cages in rooms with controlled lighting (12 hours of darkness; 12 hours of light), fed with a standard diet and provided with water ad libitum.
EP2 receptor antagonists were dissolved in benzyl benzoate/castor oil (1+4 v/v), and the dose was administered in a volume of 1 ml/kg of body weight s.c. Optionally, EP2 receptor antagonists were also administered orally in the same vehicle as the COX inhibitors (see below). […]
The COX inhibitors were suspended in a carrier liquid (85 mg of Myrj®53 polyoxyl(50)stearate; CAS No. 9004-99-3) in 100 ml of 0.9% w/v NaCl solution), and the dose corresponding to the treatment group was administered in a volume of 2 ml/kg of body weight.
Prior to the start of the experiment, two cycles were observed using vaginal swabs. Only animals having a regular 4-day cycle were used in the experiment. The animals were randomized to the treatment groups.
The animals were treated once in the proestrus, the day in the cycle when the LH peak occurs in the evening, with the test substances either alone or in combination. On the evening of the proestrus, the female animals mated with a male rat. Successive mating was confirmed by detection of vaginal sperms in the vaginal swab the next morning. The effect on fertility was determined 9-15 days after mating by the number of implantation sites of the animals. […]

[3] = Table 6.4, single administration in proestrus, E16 4 mg/animal, 17:00, data of n = 4 animals
[4] = Table 6.5, single administration in proestrus, E16 0.25 mg/animal, 17:00
[5] = Table 6.5, single administration in proestrus, E16 0.5 mg/animal, 17:00
[6] = Table 6.5, single administration in proestrus, E16 1 mg/animal, 17:00
[7] = Table 6.5, single administration in proestrus, E16 2 mg/animal, 17:00, data of n = 4 animals
[8] = Table 6.5, single administration in proestrus, E16 4 mg/animal, 17:00
[9] = proestrus, oral administration of EP2 receptor antagonist 2 mg/animal, divided to 16:00 and 17:00
[10] = single administration in proestrus, E16 1 mg/animal, 16:00
[11] = single administration in proestrus, E16 2 mg/animal, 16:00
[12] = single administration in proestrus, E16 4 mg/animal, 7:00
[13] = single administration in proestrus, E16 4 mg/animal, 13:00, data of n = 5 animals
[14] = single administration in proestrus, E16 4 mg/animal, 16:00
[15] = single administration in proestrus, E16 8 mg/animal, 16:00, data of n = 5 animals
[16] = single administration in proestrus, E161 2 mg/animal, 18:00
[17] = Table 6.4, single administration in proestrus, Meloxicam 0.25 mg/animal, 17:00, data of n = 5 animals
[18] = Table 6.4, single administration in proestrus, Meloxicam 0.5 mg/animal, 17:00
[19] = Table 6.4, single administration in proestrus, Meloxicam 1 mg/animal, 17:00
[20] = Table 6.4, single administration in proestrus, Meloxicam 2 mg/animal, 17:00, data of n = 5 animals
[21] = Table 6.5, single administration in proestrus, Meloxicam 2 mg/animal, 17:00, data of n = 5 animals

Sequence of EP2 subtype of the human PGE2 receptor (hEP2 receptor) (P43116 whole entry): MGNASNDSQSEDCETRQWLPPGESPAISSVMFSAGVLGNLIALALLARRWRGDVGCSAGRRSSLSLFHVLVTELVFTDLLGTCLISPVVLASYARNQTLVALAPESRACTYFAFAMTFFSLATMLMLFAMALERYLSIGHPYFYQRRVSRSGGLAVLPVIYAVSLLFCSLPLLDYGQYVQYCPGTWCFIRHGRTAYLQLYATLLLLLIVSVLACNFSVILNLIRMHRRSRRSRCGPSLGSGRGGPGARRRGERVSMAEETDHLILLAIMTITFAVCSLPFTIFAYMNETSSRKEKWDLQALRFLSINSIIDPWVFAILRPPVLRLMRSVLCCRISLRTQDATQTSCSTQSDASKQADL

pIC50 [1]: < 7.30
Compound: COCCNC(=O)c1ccc2nn(CC3CCN(C(=O)c4ccc(Oc5ccc(C(F)(F)F)cc5)cc4)CC3)cc2c1C [Example E16, N-(2-methoxyethyl)-4-methyl-2-[(1-{4-[4-(trifluoromethyl)phenoxy]benzoyl}piperidin-4-yl)methyl]-2H-indazole-5-carboxamide]
Absolute implantations number of 6 animals [2, 3]: 22**
Implantations per animal (mean ± SD) [2, 3]: 5.5 ± 5.4
Absolute implantations number of 6 animals [2, 4]: 78
Implantations per animal (mean ± SD) [2, 4]: 13 ± 2.3
Absolute implantations number of 6 animals [2, 5]: 60
Implantations per animal (mean ± SD) [2, 5]: 10 ± 2.8
Absolute implantations number of 6 animals [2, 6]: 42
Implantations per animal (mean ± SD) [2, 6]: 7 ± 5.4
Absolute implantations number of 6 animals [2, 7]: 30**
Implantations per animal (mean ± SD) [2, 7]: 7.5 ± 1.7
Absolute implantations number of 6 animals [2, 8]: 32
Implantations per animal (mean ± SD) [2, 8]: 5.3 ± 4.5
Absolute implantations number of 6 animals [2, 9]: 63
Implantations per animal (mean ± SD) [2, 9]: 10.5 ± 1.5
Absolute implantations number of 6 animals [2, 10]: 62
Implantations per animal (mean ± SD) [2, 10]: 10.3 ± 2.5
Absolute implantations number of 6 animals [2, 11]: 71
Implantations per animal (mean ± SD) [2, 11]: 11.8 ± 2.1
Absolute implantations number of 6 animals [2, 12]: 54
Implantations per animal (mean ± SD) [2, 12]: 9.0 ± 3.4
Absolute implantations number of 6 animals [2, 13]: 49*
Implantations per animal (mean ± SD) [2, 13]: 8.2 ± 3.1
Absolute implantations number of 6 animals [2, 14]: 50
Implantations per animal (mean ± SD) [2, 14]: 8.3 ± 3.4
Absolute implantations number of 6 animals [2, 15]: 43*
Implantations per animal (mean ± SD) [2, 15]: 8.6 ± 2.8

pIC50 [1]: < 7.30
Compound: COCCNC(=O)c1ccc2nn(CC3CCN(C(=O)c4ccc(Oc5ccc(C(F)(F)F)cn5)cc4)CC3)cc2c1C [Example E161, N-(2-methoxyethyl)-4-methyl-2-{[1-(4-{[5-(trifluoromethyl)pyridin-2-yl]oxy}benzoyl)piperidin-4-yl]methyl}-2H-indazole-5-carboxamide]
Absolute implantations number of 6 animals [2, 9]: 69
Implantations per animal (mean ± SD) [2, 9]: 11.5 ± 3.1
Absolute implantations number of 6 animals [2, 16]: 55
Implantations per animal (mean ± SD) [2, 16]: 9.0 ± 3.4

pIC50 [1]: < 7.30
Compound: COCCNC(=O)c1ccc2nn(CC3CCN(C(=O)c4ccc(-c5cncc(Cl)c5)cc4)CC3)cc2c1C [Example E198, 2-({1-[4-(5-chloropyridin-3-yl)benzoyl]piperidin-4-yl}methyl)-N-(2-methoxyethyl)-4-methyl-2H-indazole-5-carboxamide]

pIC50 [1]: < 7.30
Compound: COCCNC(=O)c1ccc2nn(CC3CCN(C(=O)c4ccc(-c5cncc(F)c5)cc4)CC3)cc2c1C [Example E199, 2-({1-[4-(5-fluoropyridin-3-yl)benzoyl]piperidin-4-yl}methyl)-N-(2-methoxyethyl)-4-methyl-2H-indazole-5-carboxamide]

pIC50 [1]: < 7.30
Compound: COCCNC(=O)c1ccc2nn(CC3CCN(C(=O)c4ccc(-c5cncc(C(F)(F)F)c5)cc4)CC3)cc2c1C [Example E200, N-(2-methoxyethyl)-4-methyl-2-[(1-{4-[5-(trifluoromethyl)pyridin-3-yl]benzoyl}-piperidin-4-yl)methyl]-2H-indazole-5-carboxamide]

pIC50 [1]: < 7.30
Compound: COCCNC(=O)c1ccc2nn(CC3CCN(C(=O)c4ccc(-c5ccc(C(C)(C)O)cc5)cc4)CC3)cc2c1C [Example E201, 2-[(1-{[4′-(2-hydroxypropan-2-yl)biphenyl-4-yl]carbonyl}piperidin-4-yl)methyl]-N-(2-methoxyethyl)-4-methyl-2H-indazole-5-carboxamide]

pIC50 [1]: < 7.30
Compound: COCCNC(=O)c1ccc2nn(CC3CCN(C(=O)c4ccc(-c5cc(F)cc(F)c5)cc4)CC3)cc2c1C [Example E202, 2-({1-[(3′,5′-difluorobiphenyl-4-yl)carbonyl]piperidin-4-yl}methyl)-N-(2-methoxy-ethyl)-4-methyl-2H-indazole-5-carboxamide]

pIC50 [1]: < 7.30
Compound: COCCNC(=O)c1ccc2nn(CC3CCN(C(=O)c4ccc(-c5ccc(F)cc5)c(C)c4)CC3)cc2c1C [Example E203, 2-({1-[(4′-fluoro-2-methylbiphenyl-4-yl)carbonyl]piperidin-4-yl}methyl)-N-(2-methoxyethyl)-4-methyl-2H-indazole-5-carboxamide]

pIC50 [1]: < 7.30
Compound: COCCNC(=O)c1ccc2nn(CC3CCN(C(=O)c4ccc(-c5cc(F)cc(F)c5)c(C)c4)CC3)cc2c1C [Example E204, 2-({1-[(3′,5′-difluoro-2-methylbiphenyl-4-yl)carbonyl]piperidin-4-yl}methyl)-N-(2-methoxyethyl)-4-methyl-2H-indazole-5-carboxamide]

pIC50 [1]: < 7.30
Compound: COCCNC(=O)c1ccc2nn(CC3CCN(C(=O)c4ccc(-c5cccnc5)c(C)c4)CC3)cc2c1C [Example E205, N-(2-methoxyethyl)-4-methyl-2-({1-[3-methyl-4-(3-pyridyl)benzoyl]piperidin-4-yl}-methyl)-2H-indazole-5-carboxamide]

pIC50 [1]: < 7.30
Compound: COCCNC(=O)c1ccc2nn(CC3CCN(C(=O)c4ccc(-c5ccncc5)c(C)c4)CC3)cc2c1C [Example E206, N-(2-methoxyethyl)-4-methyl-2-({1-[3-methyl-4-(4-pyridyl)benzoyl]piperidin-4-yl}-methyl)-2H-indazole-5-carboxamide]

pIC50 [1]: < 7.30
Compound: COCCNC(=O)c1ccc2nn(CC3CCN(C(=O)c4ccc(-c5ccccc5)c(C)c4)CC3)cc2c1C [Example E207, N-(2-methoxyethyl)-4-methyl-2-({1-[(2-methylbiphenyl-4-yl)carbonyl]piperidin-4-yl}-methyl)-2H-indazole-5-carboxamide]

Compound: Cc1cnc(NC(=O)C2=C(O)c3ccccc3S(=O)(=O)N2C)s1 [Meloxicam, meloxicam, reference compound]
Absolute implantations number of 6 animals [2, 17]: 32*
Implantations per animal (mean ± SD) [2, 17]: 6.4 ± 5.9
Absolute implantations number of 6 animals [2, 18]: 70
Implantations per animal (mean ± SD) [2, 18]: 11.7 ± 6.4
Absolute implantations number of 6 animals [2, 19]: 66
Implantations per animal (mean ± SD) [2, 19]: 11 ± 5.5
Absolute implantations number of 6 animals [2, 20]: 54*
Implantations per animal (mean ± SD) [2, 20]: 10.8 ± 4.4
Absolute implantations number of 6 animals [2, 21]: 63*
Implantations per animal (mean ± SD) [2, 21]: 12.6 ± 3.4
